Values of other authors as cited in patent US20180235869A1, “METHODS AND COMPOSITIONS FOR SOFT ANTICHOLINERGIC ZWITTERIONS” (Bodor Laboratories, Inc., priority 2015, published 2018).

Conditions: solid oral form

## C[N+]1(C)CCC(OC(=O)C(O)(c2ccccc2)C2CCCC2)C1 (stereo not drawn) [glycopyrrolate]
children
  reducing drooling: effective in reducing drooling
children, most with cerebral palsy
  dropped out of the study because of adverse effects: over 20%
Most with cerebral palsy
  children affected by adverse events: 69%
